Experimental data as given in patent US20090028925A1, “Novel Phosphinic Acid-Containing Thyromimetics” (priority 2005, published 2009).

Assays:
[1] = target: T1, human thyroid hormone receptors TRα1 (Homo sapiens, UniProt P10827); assay: Receptor binding to TRα1 (gel filtration and scintillation proximity assay, labeled T3); conditions: SPA data; read-out: Ki TRα
T1 construct: made in house; host or cells: Sf9 insect cells (baculovirus)
T1 sequence (P10827 1-410 isoform P10827-2): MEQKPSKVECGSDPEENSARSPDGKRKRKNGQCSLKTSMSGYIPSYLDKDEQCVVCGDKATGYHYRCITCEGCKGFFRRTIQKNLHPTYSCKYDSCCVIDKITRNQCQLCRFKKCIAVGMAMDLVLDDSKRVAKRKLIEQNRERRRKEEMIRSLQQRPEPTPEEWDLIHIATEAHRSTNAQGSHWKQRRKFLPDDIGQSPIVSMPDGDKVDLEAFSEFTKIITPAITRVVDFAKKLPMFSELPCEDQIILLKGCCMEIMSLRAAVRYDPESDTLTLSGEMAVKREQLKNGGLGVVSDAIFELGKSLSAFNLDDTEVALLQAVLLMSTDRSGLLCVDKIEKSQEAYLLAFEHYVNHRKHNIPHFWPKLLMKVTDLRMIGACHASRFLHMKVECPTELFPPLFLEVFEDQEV
T1 sequence (P19793 1-462 partner): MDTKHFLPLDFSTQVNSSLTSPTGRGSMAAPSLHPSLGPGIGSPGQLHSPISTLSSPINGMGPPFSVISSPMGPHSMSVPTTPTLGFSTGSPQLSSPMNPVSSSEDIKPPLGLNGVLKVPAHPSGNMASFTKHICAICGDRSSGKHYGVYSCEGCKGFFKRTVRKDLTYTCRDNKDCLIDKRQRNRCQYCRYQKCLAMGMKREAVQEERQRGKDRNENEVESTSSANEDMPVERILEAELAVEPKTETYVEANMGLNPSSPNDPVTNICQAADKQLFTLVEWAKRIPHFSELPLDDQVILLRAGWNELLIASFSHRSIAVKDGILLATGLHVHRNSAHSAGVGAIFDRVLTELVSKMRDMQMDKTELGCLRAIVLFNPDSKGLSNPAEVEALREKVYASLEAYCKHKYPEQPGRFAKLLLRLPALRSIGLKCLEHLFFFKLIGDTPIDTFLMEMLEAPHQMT

[2] = set-up: species or system rats; conditions: in vivo, po
Experimental: The oral bioavailability (OBAV) of Compound 12-1, a bis POM prodrug of Compound 7, was estimated by comparison of the dose-normalized area under the curve (AUC) of the plasma concentration-time profile of Compound 7 following IV and PO administration of Compound 7 and Compound 12-1, respectively, to normal rats.
Method: Groups of non-fasted male SD rats were administered either 5 mg/kg of Compound 7 by IV bolus or 20 mg/kg of Compound 12-1 by oral gavage. Prior to drug administration, the rats were catheterized at the tail artery to facilitate blood collection. Plasma samples were obtained at pre-specified time points following dosing, extracted with 1.5 volumes of methanol, and then assayed by an LC-UV method using a C18 column eluted with a gradient of 20% to 45% v/v acetonitrile in a potassium phosphate buffer pH 6.2 over 15 min with UV absorbance monitoring at 280 nm. The AUC values were determined noncompartmentally from the plasma concentration-time plots by trapezoidal summation to the last measurable time point.
Plasma levels of compound were analyzed by HPLC and the AUCs for the i.v. dose of 5 mg/kg and the p.o. dose of 20 mg/kg were compared. The maximum OBAV for Compound 19-2 was 0.003%. Typically, compounds that are taken forward as an oral drug candidate have OBAV values of at least 15-20%, when tested in an animal model. This minimal requirement for OBAV in a genetically homogenous model system insures that exposure can be accurately monitored when humans are treated with the compound. Furthermore, in a genetically variable background such as humans, the variability for a compound with low OBAV in genetically homogenous model systems, can be widely variable, leading some subjects to have much higher than anticipated exposure, while other subjects have no exposure.

[3] = target: T2, human thyroid hormone receptors TRβ1 (Homo sapiens, UniProt P10828); assay: Receptor binding to TRβ1 (gel filtration and scintillation proximity assay, labeled T3); conditions: SPA data; read-out: Ki TRβ
T2 construct: made in house; host or cells: Sf9 insect cells (baculovirus)
T2 sequence (P10828 1-461): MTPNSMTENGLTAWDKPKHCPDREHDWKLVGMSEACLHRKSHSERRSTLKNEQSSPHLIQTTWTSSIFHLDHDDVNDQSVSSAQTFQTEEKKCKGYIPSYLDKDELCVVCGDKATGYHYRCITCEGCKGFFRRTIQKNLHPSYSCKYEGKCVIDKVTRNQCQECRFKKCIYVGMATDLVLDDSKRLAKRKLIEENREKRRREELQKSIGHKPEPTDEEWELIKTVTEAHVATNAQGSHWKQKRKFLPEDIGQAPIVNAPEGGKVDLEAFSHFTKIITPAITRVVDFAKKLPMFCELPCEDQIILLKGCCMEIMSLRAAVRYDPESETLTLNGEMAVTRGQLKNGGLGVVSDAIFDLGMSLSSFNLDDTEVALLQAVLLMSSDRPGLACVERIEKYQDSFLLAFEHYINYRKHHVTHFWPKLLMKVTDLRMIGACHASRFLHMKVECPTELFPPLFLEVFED
T2 sequence (P19793 1-462 partner): T1 sequence (P19793 1-462 partner)

[4] = test system: CYP3A (cytochrome P450-3A (CYP3A4)); assay: Prodrug activation in rat liver microsomes; assay type: in vitro ADME; conditions: liver microsomes from dexamethasone-treated rats; dexamethasone treated rat microsomes, formation of Compound 7
Excerpt: (§1) The purpose of these studies was to determine the kinetics of activation of prodrugs of thyromimetics in microsomal preparations. Microsomes contain the P450 enzyme that is required for the activation of many of the prodrugs prepared. The Km, Vmax, and intrinsic clearance values determined are measures of prodrug affinity for the microsomal enzymes, the rate at which the prodrug is activated, and the catalytic efficiency with which the prodrug is activated, respectively.
(§2) Methods: Activation of prodrugs by dexamethasone treated rat hepatocyte microsomes. Microsomes were isolated by standard differential centrifugation methods from dexamethasone-treated rats. The treatment is to increase cytochrome P450-3A (CYP3A4) activity. Induction of CYP3A4 was confirmed by an increase in testosterone hydroxylation.
(§3) Various concentrations of HepDirect™ Compound 7 were incubated with rat hepatocytes microsomes. Compound 7 formation was analyzed by HPLC using UV-Vis detection. Kinetic parameters (Vmax and Km) were calculated from the transformed data and the intrinsic clearance calculated from the kinetic parameters.

[5] = Prodrug activation in rat liver microsomes; assay type: in vitro ADME; conditions: for Vmax: dexamethasone treated rat microsomes, formation of Compound 7; for microsomal CLint: rat, liver microsomes from dexamethasone-treated rats, intrinsic clearance calculated from the kinetic parameters
Excerpt: as §1, §2, §3

[6] = effects on cholesterol and TSH at the same or not pharmacologically different doses; cited from earlier work

Ki [1]	Ki [3]	Km [4]	microsomal CLint [5]	SMILES	absorption in the rat [2]	Vmax [5]	TSH levels [6]	cholesterol levels [6]
1670 nM	662 nM			Cc1cc(OCP(=O)(OCOC(=O)C(C)(C)C)OCOC(=O)C(C)(C)C)cc(C)c1Cc1ccc(O)c(C(C)C)c1 [Compound 12-1, di(pivaloyloxymethyl) [3,5-Dimethyl-4-(4′-hydroxy-3′-iso-propylbenzyl)phenoxy]methylphosphonate]	adequately absorbed			
488 nM	419 nM	8 µM	86 µL/min/mg	Cc1cc(OC[P@@]2(=O)OCC[C@@H](c3cccc(Br)c3)O2)cc(C)c1Cc1ccc(O)c(C(C)C)c1 [Compound 13-2-cis, 2-[(3,5-dimethyl-4-(4′-hydroxy-3′-iso-propylbenzyl)phenoxy)methyl]-4-(3-bromophenyl)-2-oxo-2λ^5-[1,3,2]-diox aphosphonane]		694 pmol/min/mg		
2840 nM	3430 nM	46 µM	46 µL/min/mg	Cc1cc(OC[P@@]2(=O)OCC[C@@H](c3cccc(F)c3)O2)cc(C)c1Cc1ccc(O)c(C(C)C)c1 [Compound 13-3-cis]		2118 pmol/min/mg		
5530 nM	1520 nM	100 µM	30 µL/min/mg	Cc1cc(OC[P@@]2(=O)OCC[C@@H](c3cccnc3)O2)cc(C)c1Cc1ccc(O)c(C(C)C)c1 [Compound 13-4-cis, 2-[(3,5-dimethyl-4-(4′-hydroxy-3′-iso-propylbenzyl)phenoxy)methyl]-4-(pyrid-3-yl)-2-oxo-2λ^5-[1,3,2]-dioxaphosphonane]		2983 pmol/min/mg		
4430 nM	1010 nM	113 µM	29 µL/min/mg	Cc1cc(OC[P@@]2(=O)OCC[C@@H](c3ccncc3)O2)cc(C)c1Cc1ccc(O)c(C(C)C)c1 [Compound 13-5-cis, 2-[(3,5-dimethyl-4-(4′-hydroxy-3′-iso-propylbenzyl)phenoxy)methyl]-4-(pyrid-4-yl)-2-oxo-2λ^5-[1,3,2]-dioxaphosphonane]		3266 pmol/min/mg		
4710 nM	3590 nM	10 µM	62 µL/min/mg	Cc1cc(OC[P@]2(=O)OCC[C@H](c3ccc(Cl)cc3)O2)cc(C)c1Cc1ccc(O)c(C(C)C)c1 [Compound 13-6-cis, 2-[(3,5-dimethyl-4-(4′-hydroxy-3′-iso-propylbenzyl)phenoxy)methyl]-4-(4-chlorophenyl)-2-oxo-2λ^5-[1,3,2]-dioxaphosphonane]		598 pmol/min/mg		
				Cc1cc(OCC(=O)O)cc(C)c1Cc1ccc(O)c(C(C)C)c1 [GC-1, [4-[[4-hydroxy-3-(1-methylethyl)phenyl]methyl]-3,5-dimethylphenoxy]acetic acid]			dose-dependently lower	dose-dependently lower

SMILES	Ki [1]	Ki [3]	Km [4]	microsomal CLint [5]	absorption in the rat [2]	Vmax [5]	TSH levels [6]	cholesterol levels [6]
CC(C)c1cc(Oc2c(Br)cc(CP(=O)(O)O)cc2Br)ccc1O [Compound 19-2, [3,5-dibromo-4-(4′-hydroxy-3′-iso-propylphenoxy)]benzylphosphonic Acid]	343 nM	20 nM			not adequately absorbed			
